Values quoted from earlier work, collected in patent US20090306023A1, “STABLE ORGANIC PEROXIDE COMPOSITIONS” (priority 2005, published 2009).

Conditions: room temperature

limit of solubility in water: approximately 0.2%
SMILES: O=C(O)c1ccccc1O [Salicylic acid, 2-hydroxybenzoic acid]
